This is an account of results in article PMC7915353, “Magnolol and Honokiol: Two Natural Compounds with Similar Chemical Structure but Different Physicochemical and Stability Properties” (Pharmaceutics, 2021).

A short description of data set [1]: Solubility in water, shake-flask method. In kind it is physicochemical. As for the experimental part: (§1) The aqueous solubility was evaluated using the shake-flask method. Briefly, approximately 40 mg of magnolol or honokiol were added to a volume of 10 mL of distilled water. The mixture was kept in constant agitation for a total period of 24–48 h. Samples were taken at 24 and 48 h, centrifuged for 2 min at 10× g, and the concentration of the dissolved compound was determined in the supernatant using the analytical method described above. The 48-h sample was used to confirm that a dissolution equilibrium had been reached after 24 h of agitation.

Data set [2] can be described thus: Solubility at different pH values at 37 °C, shake-flask. In kind it is physicochemical. Particulars: for solubility at 24 h: 37 °C, thermodynamic from solid. Here is the method:
as §1
Solubility at different pH values (1.2, 4.5, 6.8, 7.4, 8, 9, and 10) was determined at 37 °C after 24 h of agitation. The composition of the solutions is described in USP 35 [33] and the European Pharmacopeia 7.0 [34]. Briefly, the pH 1.2 solution was prepared with diluted hydrochloric acid, the solutions with pH values from 4.5 to 7.4 were phosphate buffers, and the solutions with pH 9 and 10 were borate buffers. Additionally, two pH 8 solutions were prepared using phosphate and borate buffers.

Data set [3] can be described thus: Octanol-water distribution coefficients. The class given is physicochemical. As for the experimental part:
Octanol–water distribution coefficients (Do/w) of magnolol and honokiol were determined by dissolving each compound in n-octanol, previously saturated with buffer (pH 1.2, 4.5, 6.8, and 7.4) or water, using glass vials. Buffers and water saturated with n-octanol were added to the corresponding vials, which were stirred for approximately 12 h at room temperature. Thereafter, the organic and the aqueous phases were separated by centrifuging the contents of the vials (2 min at 8000× g), and the concentration of each compound in both phases was determined by HPLC. The distribution coefficient was obtained as the quotient of the concentrations in the n-octanol and aqueous phases.

Data set [4] in a line: Stability at room temperature and 37 °C, 30 days, different pH. In kind it is physicochemical. As to conditions: one month. Here is the method:
The stability was also evaluated at room temperature and 37 °C (pH 1.2, 4.5, 6.8, 7.4, 8, 9, and 10) after an incubation period of 30 days.

A short description of data set [5]: pKa, graphical estimation from solubility-pH data. The class given is physicochemical. The source says:
Among the components of Magnolia officinalis extracts with pharmacological activity, the most relevant are magnolol and honokiol. These natural compounds have attracted great interest in recent years for their potential therapeutic applications. However, a limitation in the use of magnolol and honokiol is their poor water solubility, which can greatly restrict gastrointestinal absorption and bioavailability. The water solubilities of magnolol and honokiol at room temperature obtained in this work were 12.5 and 50.6 µg/mL, respectively. However, the solubility of both compounds can be affected by the medium pH, since their molecules contain phenolic groups that can be ionized at alkaline pH values. […] Using the obtained solubility–pH data, the pKa of magnolol can be estimated from the intersection of the straight lines corresponding to pH 1.2–6.8 and to pH 7.4–10 in Figure 3 [36]. […] This discrepancy is probably due to the reduced number of values for the second straight line (pH 9 and 10). […] The different solubility values obtained in both studies could be related to the different agitation time, which was shorter in the study of Lee et al. (2 h vs. 24 h). […] In the case of honokiol, no data about its solubility at different pH values have been found in the available literature. […] Again, the discrepancy in these values could be related to the agitation time (4 h vs. 24 h).

For data set [6] the following is noted: computer program; cited from earlier work.
Data set [7] can be described thus: Forced-degradation at 60 °C, different pH values. As to conditions: 24 h, 0.1 M HCl, 0.1 M NaOH, buffers pH 7.4-10. The class given is physicochemical. As for the experimental part: The stability of both natural products was evaluated in forced conditions at 60 °C using different pH values. Magnolol and honokiol solutions were prepared in 0.1 M HCl, 0.1 M NaOH, and buffers (pH 7.4, 8, 9, and 10). These solutions were kept at 60 °C for 24 h and the concentration of remaining magnolol and honokiol was determined.

Data set [8] can be described thus: Stability under oxidizing conditions (3% H2O2). The class given is physicochemical. As to conditions: 3% hydrogen peroxide, 24 h, room temperature, 37 °C and 60 °C. As for the experimental part: Additionally, stability was examined under oxidizing conditions using 3% H2O2. These samples were kept at room temperature, 37 °C, and 60 °C, for 24 h. The concentration of samples was expressed as a percentage of the initial concentration.

For data set [9] the following is noted: cited from earlier work.
For data set [10] the following is noted: cited from earlier work. This is another data set of the same source.

The structures appear in SMILES notation. Converted amounts (≈) assume the structure as drawn. Where two headings read alike, the source gives them in different places.

The solubility is the dissolved amount per volume that the medium holds. Usually pKa stands for the negative logarithm of the acid dissociation constant. As for `C=CCc1ccc(O)c(-c2ccc(O)c(CC=C)c2)c1` [Honokiol, 3,5′-diallyl-4,2′-dihydroxybiphenyl], the solubility at 24 h was 50.6 ± 1.2 µg/mL (≈ 190 µM) in [1]; ~220 µg/mL (≈ 826 µM) in [2] (pH 10, aqueous buffer); ~75 µg/mL (≈ 282 µM) in data set [2]. In addition, the logP in [3] (Log Do/w) is 4.27 ± 0.06; in [3] (log Po/w), ~4.5. Besides, the logD in data set [3] (pH 1.2) came out at 4.48 ± 0.05; in data set [3] (pH 4.5), 4.5 ± 0.08; in [3] (pH 6.8), 4.48 ± 0.04; in [3] (pH 7.4) it was 4.28 ± 0.05. In addition, the Degradation result in [4] (pH 4.5 and 6.8, 37 °C) is recorded as “a decrease in the initial concentration was detected”; in data set [4] (pH values lower than 7.4, room temperature) it was “no degradation”. The “Concentration, percentage of the initial concentration” value in data set [4] (pH 7.4, 37 °C) is 29%; in data set [4] (pH 7.4, room temperature) it was 84%. In addition, in data set [5], the pKa is 8.5. For the same compound, the “log Po/w, theoretical estimation” value in [6] is on record as 4.20.

In the case of `C=CCc1ccc(O)c(-c2cc(CC=C)ccc2O)c1` [Magnolol, 5, 5′-diallyl-2, 2′-dihydroxybiphenyl], the solubility at 24 h in data set [1] (water, room temperature, preliminary solubility test, read-out: Solubility in water) is 12.5 ± 0.6 µg/mL (≈ 46.9 µM); in data set [2] (pH 1.2, simulated gastric fluid, pH 1.2, 37 °C, 24 h agitation, read-out: Solubility), 14.8 µg/mL (≈ 55.4 µM); in [2] (pH 7.4, aqueous buffer, pH 7.4, 37 °C, 24 h agitation, read-out: Solubility), 30.5 µg/mL (≈ 115 µM); in data set [2] (pH 8, aqueous buffer, pH 8 borate buffer, read-out: Solubility), 138 µg/mL (≈ 518 µM); in data set [2] (pH 8, aqueous buffer, pH 8 phosphate buffer, read-out: Solubility), 76 µg/mL (≈ 285 µM); in [2] (pH 10, aqueous buffer, pH 10, 37 °C, read-out: Solubility) it was ~2700 µg/mL (≈ 10100 µM). Besides, the solubility at 24 h in data set [2] (pH values lower than 7.4, 37 °C, 24 h agitation, read-out: Solubility) is ~16 µg/mL (≈ 60.1 µM). Further, the “Solubility at pH 7.4 in comparison to pH 1.2, fold higher” value in data set [2] (present study) was ~2 fold. Besides, the logP in [3] (aqueous phase H2O, n-octanol, room temperature, mean ± SD, n = 4, read-out: Log Do/w) was 4.07 ± 0.09; in data set [3] (from log Do/w values at the acidic pHs, read-out: log Po/w) it was ~4.5. For the same compound, the logD turned out to be 4.5 ± 0.1 in data set [3] (aqueous phase pH 1.2, n-octanol, room temperature, mean ± SD, n = 4, read-out: Log Do/w); 4.55 ± 0.11 in data set [3] (aqueous phase pH 4.5, n-octanol, room temperature, mean ± SD, n = 4, read-out: Log Do/w); 4.48 ± 0.06 in data set [3] (aqueous phase pH 6.8, n-octanol, room temperature, mean ± SD, n = 4, read-out: Log Do/w); 4.3 ± 0.08 in data set [3] (aqueous phase pH 7.4, n-octanol, room temperature, mean ± SD, n = 4, read-out: Log Do/w). Moreover, in [7], the “Stability at different pH values” was “relatively stable”. In data set [8], the “Stability under oxidizing conditions” value was “degradation increased with the temperature”. The pKa in data set [5] (intersection of straight lines of solubility-pH profile (Figure 3), read-out: pKa, graphical estimation) is 7.2. The Solubility in data set [9] (pH 1.2, 2 h of agitation) is recorded as 3.25 µg/mL (≈ 12.2 µM); in [9] (pH 3.5, 2 h of agitation), 4.95 µg/mL (≈ 18.6 µM); in data set [9] (pH 7.4, 2 h of agitation), 0.04 µg/mL (≈ 0.15 µM). The “Solubility at pH 7.4 in comparison to pH 1.2, fold lower” value in [9] (study by Lee et al.) was “approximately 99 fold”. In data set [10], the “pKa (first value)” value was 7.10. Also, in data set [10], the “pKa (second value)” value is given as 10.58. Also, the “log Po/w, theoretical estimation” value in data set [6] is given as 3.94.
